According to ChEMBL document CHEMBL4665716, “Identification of a novel series of azabenzimidazole-derived inhibitors of spleen tyrosine kinase” (Bioorg Med Chem Lett, 2020):
Converted amounts (≈) assume the structure as drawn.

Tests used:
[1] = biological target: Tyrosine-protein kinase SYK (Homo sapiens, UniProt P43405); assay: Inhibition of SYK (unknown origin)
[2] = biological target: Voltage-gated inwardly rectifying potassium channel KCNH2 (Homo sapiens, UniProt Q12809); assay: Inhibition of human ERG
Sequence of Voltage-gated inwardly rectifying potassium channel KCNH2 (Q12809 whole entry): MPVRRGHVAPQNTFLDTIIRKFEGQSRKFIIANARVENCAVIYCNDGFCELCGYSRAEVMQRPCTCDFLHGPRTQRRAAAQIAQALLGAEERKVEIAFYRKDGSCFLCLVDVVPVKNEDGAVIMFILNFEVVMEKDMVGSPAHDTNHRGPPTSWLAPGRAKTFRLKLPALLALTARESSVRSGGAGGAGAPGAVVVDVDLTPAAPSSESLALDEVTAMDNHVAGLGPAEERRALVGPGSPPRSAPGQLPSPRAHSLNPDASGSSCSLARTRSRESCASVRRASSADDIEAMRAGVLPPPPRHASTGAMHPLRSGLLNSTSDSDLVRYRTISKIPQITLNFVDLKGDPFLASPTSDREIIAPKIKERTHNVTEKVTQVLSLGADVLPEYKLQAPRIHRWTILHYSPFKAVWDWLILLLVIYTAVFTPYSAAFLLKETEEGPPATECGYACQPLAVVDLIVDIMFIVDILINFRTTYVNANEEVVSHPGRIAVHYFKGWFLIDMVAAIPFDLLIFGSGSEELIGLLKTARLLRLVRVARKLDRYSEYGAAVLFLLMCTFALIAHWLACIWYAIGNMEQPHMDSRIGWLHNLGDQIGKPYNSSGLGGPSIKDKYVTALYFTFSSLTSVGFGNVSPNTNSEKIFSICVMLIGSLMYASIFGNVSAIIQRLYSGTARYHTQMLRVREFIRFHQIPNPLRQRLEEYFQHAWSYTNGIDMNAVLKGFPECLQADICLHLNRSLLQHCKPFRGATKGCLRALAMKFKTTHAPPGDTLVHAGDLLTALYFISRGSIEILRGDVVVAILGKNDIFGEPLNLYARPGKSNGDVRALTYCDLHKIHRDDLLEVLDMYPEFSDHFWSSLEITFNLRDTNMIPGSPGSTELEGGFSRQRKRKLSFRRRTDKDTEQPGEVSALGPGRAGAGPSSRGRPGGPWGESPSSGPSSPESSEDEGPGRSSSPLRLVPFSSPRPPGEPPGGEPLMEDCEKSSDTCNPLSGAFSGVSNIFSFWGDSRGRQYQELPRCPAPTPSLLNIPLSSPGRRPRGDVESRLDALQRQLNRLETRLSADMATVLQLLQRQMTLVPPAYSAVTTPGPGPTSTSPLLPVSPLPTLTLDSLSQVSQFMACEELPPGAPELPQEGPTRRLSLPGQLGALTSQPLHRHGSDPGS

SUD4 = assay: Growth inhibition of human SU-DHL-4 cells; assay type: functional
[3] = Lipophilicity, logD of compound; assay type: physicochemical; conditions: octanol/water
[4] = Intrinsic clearance in rat hepatocytes assessed per 10^6 cells; assay type: ADME, cell-based, Hepatocyte; conditions: read-out: CLH
[5] = Solubility of compound; assay type: physicochemical
[6] = Intrinsic clearance in human liver microsome; assay type: ADME; conditions: microsomes
[7] = Apparent permeability in human Caco-2 cells; assay type: ADME, cell-based

| Structure (SMILES) | IC50 [1] | IC50 [2] | GI50 (SUD4) | other results |
| --- | --- | --- | --- | --- |
| Cn1ccc2c(-c3nc4c(-n5cc(CN6CC[C@@H](O)C6)cn5)ccnc4[nH]3)cccc21 | 0.48 nM | > 33000 nM | 1200 nM |  |
| Cn1ccc2c(-c3nc4c(-n5cc(N[C@@H]6CCOC[C@@H]6N)cn5)ccnc4[nH]3)cccc21 |  |  | 210 nM |  |
| COc1ccc(-c2nc3c(NCC4CCNCC4)c(Cl)cnc3[nH]2)cc1 | 5 nM |  |  |  |
| Cc1nn(-c2ccnc3[nH]c(-c4cccc5c4ccn5C)nc23)cc1CN1CC[C@H](O)C1 | 4.6 nM | 27000 nM | 1200 nM |  |
| CN(C)Cc1cnn(-c2ccnc3[nH]c(-c4cn(C)c5ccc(C(=O)N(C)C)cc45)nc23)c1 | 1.2 nM | > 40000 nM | 1700 nM |  |
| CN(c1cnn(-c2ccnc3[nH]c(-c4cccc5c4ccn5C)nc23)c1)[C@@H]1CCOC[C@@H]1N | 5.5 nM | 9200 nM | 1100 nM |  |
| Cc1nn(-c2ccnc3[nH]c(-c4cccc5c4ccn5C)nc23)cc1CN(C)C | 0.83 nM | 2600 nM | 770 nM | logD [3]: 2.8; hepatocyte CLint [4]: 127 µL/min/1e6 cells; solubility [5]: 89 µM (≈ 34.3 µg/mL); CLint [6]: 37 µL/min/mg |
| Cn1ccc2c(-c3nc4c(-n5cc(CN6CC[C@H](O)C6)cn5)ccnc4[nH]3)cccc21 | 1 nM | > 40000 nM | 1800 nM |  |
| Cn1ccc2c(-c3nc4c(OCC5CCNCC5)c(Cl)cnc4[nH]3)cccc21 | 3.51 nM |  |  |  |
| Cc1nn(-c2ccnc3[nH]c(-c4cccc5c4ccn5C)nc23)cc1CN1CC[C@@H](O)C1 | 0.91 nM | 31000 nM | 1100 nM | logD [3]: 2.9; hepatocyte CLint [4]: 40 µL/min/1e6 cells; solubility [5]: < 20 µM; CLint [6]: 63 µL/min/mg; Papp [7]: 0.63 ×10⁻⁶ cm/s |
| Clc1cnc2[nH]c(-c3ccccc3)nc2c1OCC1CCNCC1 | 30 nM |  |  |  |
| CN(C)Cc1cc(-c2ccnc3[nH]c(-c4cccc5c4ccn5C)nc23)nn1C | 2.8 nM | 13000 nM | 1000 nM |  |

Second part, led by results:

| IC50 [1] | Structure (SMILES) | IC50 [2] | GI50 (SUD4) | other results |
| --- | --- | --- | --- | --- |
| 0.17 nM | CC(=O)Nc1ccc2c(c1)c(-c1nc3c(-n4cc(CN(C)C)c(C)n4)ccnc3[nH]1)cn2C |  | 200 nM |  |
| 0.15 nM | CNC(=O)c1ccc2c(c1)c(-c1nc3c(-n4cc(CN(C)C)cn4)ccnc3[nH]1)cn2C |  | 210 nM |  |
| 0.21 nM | Cc1nnc(-c2ncn3ccc(Nc4nccc(-c5cc(CN(C)C)n(C)n5)n4)cc23)o1 |  |  |  |
| 0.077 nM | CN(C)Cc1cnn(-c2ccnc3[nH]c(-c4cn(C)c5ccc(S(C)(=O)=O)cc45)nc23)c1 |  | 440 nM |  |
| 0.098 nM | Cc1nnc(-c2ccc3c(c2)c(-c2nc4c(-n5cc(CN(C)C)c(C)n5)ccnc4[nH]2)cn3C)o1 |  | 290 nM |  |
| 0.18 nM | CNC(=O)c1cc2c(-c3nc4c(-n5cc(CN(C)C)cn5)ccnc4[nH]3)cn(C)c2cn1 | > 40000 nM | 870 nM |  |
